# Entries after “also recorded” stand apart in the source; their conditions may differ. Marks after values point to notes of the source that are not given here.
# Legend:
# [1] = tested on: nitric oxide synthase system; assay: Residual nitrite equivalency scale, key findings across all species (Example 26)
# [2] = tested on: NOS system; assay: Residual nitrite in test tube pork loin sausages (Example 11)
# Description: Pork loins from a local meat distributor were procured on Mar. 18, 2019 and tested four weeks later on Apr. 18, 2019. A total of nine pounds of pork loins were split into thirds and ground through kidney, ½″, and ¼″ plates to make a restructured ham sausages formulated (Table 14) to contain either 1000 or 5000 ppm L-arginine which were stuffed in 2″ plastic casings and thermally processed. Three pounds of each grind size (9 pound batch) were mixed with high (5000 ppm), low (1000 ppm), or control (0 ppm) concentrations of brine at 25% addition using a Kitchen aid mixer. It was decided to lower the concentration of the L-arginine from 1500 ppm (Test 3) to 1000 ppm (Test 4) to verify that this concentration can generate acceptable levels of NO to develop cured color and residual nitrite for antioxidant and antimicrobial properties. Control and treatment met batches were stuffed in plastic casings in triplicate for each high, low, and control concentrations in one pound portions. […] The samples were tested for residual nitrite and nitroso-hemochromagen pigment (Table 14) one day after thermal processing cooking (April 19th to April 20th), then eight days after thermal processing on April 26th to determine any cure color fading and residual nitrite.
# [3] = tested on: Nitric Oxide Synthase (NOS) system; assay: NO-heme, total heme, nitrosylation in plastic casing test tube ground pork loin sausages (Example 10); conditions: for Nitrosylation / NO-Heme / Total Heme: cooked; for NO-Heme / Total Heme: ppm acid hematin
# Description: (§1) The desired cured color could not initially be generated in a variety of processed meat products in a pilot plant setting. […] Pork loins (N=2) procured from a local meat distributor (Mar. 18, 2019) were used. Eight pounds of pork loins were ground (½″ then ¼″ plate) and weighed out in one pound portions. Plastic waterproof casings (2″ diameter) were clipped at one end. One pound of ground pork loin was placed in the casing and two pounds of brine (L-arginine concentration 7498 ppm) were added and the open end of the casing clipped. Based on laboratory test tube studies, meat samples would absorb 20-25% of the solution which equates to absorption of approximately 1500 ppm of L-arginine. Each plastic casing contained the same proportion of meat and brine as conducted during previous laboratory experiments (Table 12). A control was manufactured by substituting distilled water for the L-arginine brine.
# (§2) After thermal processing the plastic casing test tubes were cut open and emptied into beakers, then separated into residue (meat particles) and supernatant (liquid) via paper filtration into 50 mL conical tubes for collection and subsequent analysis for residual nitrite (supernatant) and cured pigment formation/nitrosylation (meat residue).
# (§3) Nitrosylation and residual nitrite analyses was performed under reduced light to avoid loss of pigmentation. L-arginine treated test tube pork sausage averaged 53.12 to 72.30 ppm of residual nitrite in the cooked meat pellet with percent nitrosylation ranging from 33 to 60 percent (Table 13). The brine was formulated to deliver 1500 ppm ingoing L-arginine at 25% absorption into the meat after two hours of immersion in the brine solution.
# [4] = tested on: Nitric Oxide Synthase (NOS) system; assay: Residual nitrite in plastic casing test tube ground pork loin sausages (Example 10); conditions: for Nitrite Pellet / Nitrite Supernatant: cooked
# Description: as §1, §2, §3
# [5] = pH after immersion, pre-rigor pork semimembranosus muscle (first study); format: physicochemical
compound,measurement,setting,value
N=C(N)NCCC[C@H](N)C(=O)O [L-arginine],"residual nitrite values compared to sodium nitrite concentrations of 120, 156 and 200 ppm","[1]; L-arginine 1000, 2000 and 3000 ppm, with sodium erythorbate, except poultry at 200 ppm sodium nitrite",comparable
same,residual nitrite values compared to lower L-arginine concentrations,"[1]; L-arginine 4000 and 5000 ppm, with sodium erythorbate",lower residual nitrite values
same,residual nitrite values compared to sodium nitrite treated samples,[1]; no cure accelerator (sodium erythorbate) included,consistently lower; also recorded: lower residual nitrite values
same,Nitrite,"[2]; High (5000 ppm) L-arginine, 8 days post thermal processing, refrigerated vacuum packaged",48.12^a ppm
same,Nitrite,"[2]; High (5000 ppm) L-arginine, one day after thermal processing",66.73^a ppm
same,Nitrite,"[2]; Low (1000 ppm) L-arginine, 8 days post thermal processing, refrigerated vacuum packaged",37.78^a ppm
same,Nitrite,"[2]; Low (1000 ppm) L-arginine, one day after thermal processing",79.16^a ppm
same,residual nitrite decrease,[2]; during 8 days of refrigerated vacuum packaged storage,20-30 ppm
same,Nitrosylation,[3]; 10% L-arginine brine,33.71^ab %
same,NO-Heme,[3]; 10% L-arginine brine,7.63^bc ppm
same,Total Heme,[3]; 10% L-arginine brine,22.66^a ppm
same,Nitrosylation,[3]; 15% L-arginine brine,45.19^a %
same,NO-Heme,[3]; 15% L-arginine brine,8.70^b ppm
same,Total Heme,[3]; 15% L-arginine brine,19.26^a ppm
same,Nitrosylation,[3]; 20% L-arginine brine,36.99^ab %
same,NO-Heme,[3]; 20% L-arginine brine,8.31^b ppm
same,Total Heme,[3]; 20% L-arginine brine,22.66^a ppm
same,Nitrosylation,[3]; 25% L-arginine brine,60.13^a %
same,NO-Heme,[3]; 25% L-arginine brine,16.24^a ppm
same,Total Heme,[3]; 25% L-arginine brine,28.56^a ppm
same,percent nitrosylation,[3]; range over brine additions 10-25%,33 to 60%
same,Nitrite Pellet,[4]; 10% L-arginine brine (formulated for 1500 ppm L-arginine),72.31^a ppm
same,Nitrite Supernatant,[4]; 10% L-arginine brine,33.48^a ppm
same,Nitrite Pellet,[4]; 15% L-arginine brine (formulated for 1500 ppm L-arginine),53.12^ab ppm
same,Nitrite Supernatant,[4]; 15% L-arginine brine,36.50^a ppm
same,Nitrite Pellet,[4]; 20% L-arginine brine (formulated for 1500 ppm L-arginine),59.52^ab ppm
same,Nitrite Supernatant,[4]; 20% L-arginine brine,40.80^a ppm
same,Nitrite Pellet,[4]; 25% L-arginine brine (formulated for 1500 ppm L-arginine),59.63^ab ppm
same,Nitrite Supernatant,[4]; 25% L-arginine brine,35.34^a ppm
same,residual nitrite in the cooked meat pellet,[4]; range of averages over brine additions 10-25%,53.12 to 72.30 ppm
same,pH after 2 hours of sample immersion,"[5]; 2 mM L-arginine, cooked",5.88^a
same,pH after 2 hours of sample immersion,"[5]; 2 mM L-arginine, raw",5.84^a
same,pH after 2 hours of sample immersion,"[5]; 4 mM L-arginine, cooked",5.86^a
same,pH after 2 hours of sample immersion,"[5]; 4 mM L-arginine, raw",5.85^a
same,pH after 2 hours of sample immersion,"[5]; 8 mM L-arginine, cooked",5.87^a
same,pH after 2 hours of sample immersion,"[5]; 8 mM L-arginine, raw",5.83^a
same,pH after 2 hours of sample immersion,"[5]; 16 mM L-arginine, cooked",5.94^a
same,pH after 2 hours of sample immersion,"[5]; 16 mM L-arginine, raw",5.88^a
same,pH after 2 hours of sample immersion,"[5]; 32 mM L-arginine, cooked",6.05^a
same,pH after 2 hours of sample immersion,"[5]; 32 mM L-arginine, raw",6.01^a
same,sample pH after the immersion phase,"[5]; range over raw and cooked, 0-32 mM",5.83-6.05

# — patent US20230029496A1, “AMINO ACID ALTERNATIVE CURING SYSTEM” (THE TEXAS A&M UNIVERSITY SYSTEM, priority 2019, published 2023)
